Test system: C. elegans
Experiment: Efficacy against nematodes (C. elegans motility rating)
Set-up: key: 0: no effect; 7: reduced movement in 24 h; 8: dead in 24 h; 9: dead in 4 h
Settings: observations at 4 h and 24 h postimmersion
Experimental: Evaluation of the Efficacy of a 3-Aryl-4-Hydroxyfuranone Against Nematodes
In this evaluation, cultures of C. elegans are maintained on E. coli lawns on Nematode Growth Agar at 20° C. New cultures are established twice a week. Nematodes for testing are rinsed from plates using M9 Buffer. […] One μL of this solution is added to each well of a 96 well plate. A mixture of C. elegans in M9 Buffer (100 μL) is added to each well, such that approximately 50 worms of mixed stages (L1, L2, L3, L4 and adults) are present in each well at a final concentration of 100 ppm, 150 ppm or […] of test compound. Concentration of test compound may be varied by gradient dilution of the stock DMSO solution. Observations are made under a dissecting microscope at 4 h and 24 h postimmersion. A rating is based on the motility of the larvae and adults, using the rating system shown below.

## CCOC(=O)CNC(=O)CNC(=O)c1cccc(/C=C2\OC(=O)C(c3cc(Cl)cc(Cl)c3)=C2O)c1
Dose 150 ppm
  Rating: 0

## O=C1OC(=Cc2cnccc2-c2cccc(Cl)c2)C(O)=C1c1ccc(OC(F)(F)F)cc1 (mixture of isomers)
Dose 100 ppm
  Rating: 9

## O=C1O/C(=C\c2cccc(C(F)(F)F)c2)C(O)=C1c1ccc2ccccc2c1 [R=H; R1=2-naphthyl; R2=3-CF3—C6H4]
Dose 150 ppm
  Rating: 9

## N#Cc1ccc(C2=C(O)C(=Cc3ccc(C(F)(F)F)cc3)OC2=O)cc1 (mixture of isomers) [R=H; R1=4-CN—C6H4**; R2=4-CF3-C6H4]
Dose 100 ppm
  Rating: 9

## COc1ccc(C2=C(O)/C(=C/c3ccc4ccccc4c3)OC2=O)cc1 [R=H; R1=4-OCH3—C6H4; R2=2-naphthyl]
Dose 150 ppm
  Rating: 0

## Cc1cc(/C=C2\OC(=O)C(c3cccc(Cl)c3)=C2O)ccc1-c1ccccc1Cl
Dose 150 ppm
  Rating: 9

## O=C1OC(=Cc2ccncc2Cl)C(O)=C1c1ccc(OC(F)(F)F)cc1 (mixture of isomers)
Dose 100 ppm
  Rating: 9

## O=C1OC(=Cc2ccc(C(F)(F)F)c(F)c2)C(O)=C1c1ccc(Cl)cc1 (mixture of isomers) [R=H; R1=4-Cl—C6H4**; R2=3-F-4-CF3—C6H4]
Dose 100 ppm
  Rating: 9

## CN(C)c1ccc(/C=C2\OC(=O)C(c3ccc(Cl)cc3)=C2O)c2ccccc12
Dose 150 ppm
  Rating: 0

## O=C1OC(=Cc2cc(C(F)(F)F)ccc2Cl)C(O)=C1c1ccc(-c2ccccc2)cc1 [R=H; R1=4-biphenyl; R2=2-Cl-5-CF3—C6H3]
Dose 200 μM
  Rating: 9

## COc1cc(/C=C2\OC(=O)C(c3cccc(Cl)c3)=C2O)ccc1-c1ccccc1Cl
Dose 150 ppm
  Rating: 8

## O=C1OC(=Cc2c[nH]c(-c3ccccc3)n2)C(O)=C1c1ccc(OC(F)(F)F)cc1 (mixture of isomers)
Dose 100 ppm
  Rating: 0

## O=C1O/C(=C\c2cccc(C(F)(F)F)c2)C(O)=C1c1ccccc1 [R=H; R1=C6H5; R2=3-CF3—C6H4]
Dose 150 ppm
  Rating: 0

## O=C1O/C(=C\c2cccc(C(F)(F)F)c2)C(O)=C1c1cccc(-c2ccccc2)c1 [R=H; R1=3-biphenyl; R2=3-CF3—C6H4]
Dose 150 ppm
  Rating: 0

## O=C1O/C(=C\c2ccc(Cl)cc2)C(O)=C1c1cccc2ccccc12 [R=H; R1=1-naphthyl; R2=4-Cl—C6H4]
Dose 150 ppm
  Rating: 0

## O=C1OC(=Cc2ccc(-c3cccs3)cc2)C(O)=C1c1ccc(OC(F)(F)F)cc1 (mixture of isomers)
Dose 100 ppm
  Rating: 9

## O=C1OC(=Cc2ccc(-n3cncn3)cc2)C(O)=C1c1ccc(OC(F)(F)F)cc1 (mixture of isomers)
Dose 100 ppm
  Rating: 9

## O=C1OC(=Cc2ccc(OCC3CC3)cc2)C(O)=C1c1ccc(Cl)cc1 (mixture of isomers)
Dose 100 ppm
  Rating: 7

## CCCc1ccc(-c2ccc(C3=C(O)/C(=C/c4cc(C(F)(F)F)ccc4F)OC3=O)cc2)cc1
Dose 200 μM
  Rating: 9

## O=C1OC(=Cc2ccc(Cl)cc2)C(O)=C1c1ccc(C(F)(F)F)cc1 (mixture of isomers) [R=H; R1=4-CF3—C6H4**; R2=4-Cl—C6H4]
Dose 100 ppm
  Rating: 9

## Cc1ccc(C2=C(O)/C(=C/c3cc(C(F)(F)F)ccc3Cl)OC2=O)cc1C
Dose 200 μM
  Rating: 0

## O=C1O/C(=C\c2ccc(N3CCN(c4ccccc4Cl)CC3)c(Cl)c2)C(O)=C1c1cc(Cl)cc(Cl)c1
Dose 150 ppm
  Rating: 0

## COc1ccccc1-c1ccc(C=C2OC(=O)C(c3cc(Cl)cc(Cl)c3)=C2O)cc1C
Dose 150 ppm
  Rating: 0

## O=C1O/C(=C\c2cc(C(F)(F)F)ccc2Cl)C(O)=C1c1ccc(N2CCOCC2)c(F)c1
Dose 150 ppm
  Rating: 0

## CC(=O)Nc1cccc(C2=C(O)C(=Cc3ccc(-c4cccc(NC(C)=O)c4)cc3)OC2=O)c1
Dose 150 ppm
  Rating: 0

## O=C1O/C(=C\c2ccc(-c3ccccc3)cc2)C(O)=C1c1ccc(-c2ccccc2)cc1 [R=H; R1=4-biphenyl; R2=4-biphenyl]
Dose 150 ppm
  Rating: 9

## CCCCc1ccc(-c2ccc(C3=C(O)/C(=C/c4cc(C(F)(F)F)ccc4F)OC3=O)cc2)cc1
Dose 200 μM
  Rating: 0

## O=C1O/C(=C\c2ccc(F)c(C(F)(F)F)c2)C(O)=C1c1ccc(Cl)s1
Dose 100 ppm
  Rating: 9

## Cc1ccccc1-c1ccc(C=C2OC(=O)C(c3cc(Cl)cc(Cl)c3)=C2O)cc1C
Dose 150 ppm
  Rating: 0

## CCCc1ccc(-c2ccc(C3=C(O)/C(=C/c4cc(C(F)(F)F)ccc4Cl)OC3=O)cc2)cc1
Dose 200 μM
  Rating: 0

## O=C1OC(=Cc2cnccc2-c2ccc(OC(F)(F)F)cc2)C(O)=C1c1ccc(OC(F)(F)F)cc1 (mixture of isomers)
Dose 100 ppm
  Rating: 9

## Cc1cc(C)cc(C2=C(O)/C(=C/c3cc(C(F)(F)F)ccc3Cl)OC2=O)c1
Dose 200 μM
  Rating: 0

## O=C1OC(=Cc2ccc(C(F)(F)F)cc2F)C(O)=C1c1ccc(OC(F)(F)F)cc1 (mixture of isomers) [R=H; R1=4-OCF3—C6H4**; R2=2-F-4-CF3—C6H3]
Dose 100 ppm
  Rating: 9

## N#Cc1ccc(-c2ccc(C=C3OC(=O)C(c4ccc(OC(F)(F)F)cc4)=C3O)cc2)cc1 (mixture of isomers)
Dose 100 ppm
  Rating: 9

## CC(C)c1cccc(C2=C(O)/C(=C/c3cc(C(F)(F)F)ccc3Cl)OC2=O)c1
Dose 200 μM
  Rating: 0

## COc1ccc(/C=C2\OC(=O)C(c3cccc(Cl)c3)=C2O)c2ccccc12
Dose 150 ppm
  Rating: 9

## O=C1OC(=Cc2ccc(-c3cccc(CO)c3)cc2)C(O)=C1c1cccc(CO)c1
Dose 150 ppm
  Rating: 0

## O=C1O/C(=C\c2ccc(-c3cc(Cl)cc(Cl)c3)cc2)C(O)=C1c1cc(Cl)cc(Cl)c1
Dose 150 ppm
  Rating: 7

## CCOc1ccc(-c2ccc(C3=C(O)/C(=C/c4cc(C(F)(F)F)ccc4F)OC3=O)cc2)cc1
Dose 200 μM
  Rating: 9

## Cc1ccccc1-n1ncc(C=C2OC(=O)C(c3ccc(OC(F)(F)F)cc3)=C2O)c1C (mixture of isomers)
Dose 100 ppm
  Rating: 0

## Cc1ccc(C2=C(O)C(=Cc3cccc(C(F)(F)F)c3Cl)OC2=O)cc1C
Dose 200 μM
  Rating: 9

## CCCCc1ccc(-c2ccc(C3=C(O)C(=Cc4cc(F)cc(C(F)(F)F)c4)OC3=O)cc2)cc1
Dose 200 μM
  Rating: 9

## O=C1OC(=Cc2ccc(N3CCOCC3)nc2)C(O)=C1c1ccc(OC(F)(F)F)cc1 (mixture of isomers)
Dose 100 ppm
  Rating: 0

## O=C1OC(=Cc2ccc(Br)o2)C(O)=C1c1ccc(OC(F)(F)F)cc1 (mixture of isomers)
Dose 100 ppm
  Rating: 9

## O=C1OC(=Cc2ccc(-c3cc(C(F)(F)F)cc(C(F)(F)F)c3)cc2)C(O)=C1c1cc(C(F)(F)F)cc(C(F)(F)F)c1
Dose 150 ppm
  Rating: 0

## O=C1O/C(=C\c2ccc(OCC3CC3)cc2)C(O)=C1c1ccc(Cl)s1
Dose 100 ppm
  Rating: 9

## O=C1OC(=Cc2ccc(-c3ccc(F)c(C(F)(F)F)c3)o2)C(O)=C1c1ccc(OC(F)(F)F)cc1 (mixture of isomers)
Dose 100 ppm
  Rating: 9

## O=C1OC(=Cc2cnccc2-c2ccc(Cl)s2)C(O)=C1c1ccc(OC(F)(F)F)cc1 (mixture of isomers)
Dose 100 ppm
  Rating: 9

## N#Cc1ccc(C=C2OC(=O)C(c3ccc(C(F)(F)F)cc3)=C2O)cc1 (mixture of isomers) [R=H; R1=4-CF3—C6H4**; R2=4-CN—C6H4]
Dose 100 ppm
  Rating: 9

## O=C1O/C(=C\c2ccc(-c3ccccc3CO)cc2)C(O)=C1c1ccccc1CO
Dose 150 ppm
  Rating: 0

## O=C1O/C(=C\c2cccc(C(F)(F)F)c2)C(O)=C1c1cccc2ccccc12 [R=H; R1=1-naphthyl; R2=3-CF3—C6H4]
Dose 150 ppm
  Rating: 0

## O=C1OC(=Cc2cccc(OCc3ccccc3)c2)C(O)=C1c1cc(Cl)cc(Cl)c1
Dose 150 ppm
  Rating: 0

## COc1cc(/C=C2\OC(=O)C(c3cc(Cl)cc(Cl)c3)=C2O)ccc1-c1ccccc1C(F)(F)F
Dose 150 ppm
  Rating: 0

## Cc1cc(/C=C2\OC(=O)C(c3cccc(Cl)c3)=C2O)ccc1-c1ccccc1C(F)(F)F
Dose 150 ppm
  Rating: 9

## COc1ccc(C2=C(O)/C(=C/c3ccc(Cl)cc3)OC2=O)cc1 [R=H; R1=4-OCH3—C6H4; R2=4-Cl—C6H4]
Dose 150 ppm
  Rating: 0

## O=C1OC(=Cc2ccc(-c3ccc(Cl)cc3)cc2)C(O)=C1c1ccc(C(F)(F)F)cc1 (mixture of isomers)
Dose 100 ppm
  Rating: 9

## CCc1ccc(C2=C(O)/C(=C/c3cc(C(F)(F)F)ccc3Cl)OC2=O)cc1
Dose 200 μM
  Rating: 9

## O=C1O/C(=C\c2ccccc2-c2cccc(Cl)c2)C(O)=C1c1cccc(Cl)c1 [R=H; R1=3-Cl—C6H4; R2=2-(3′-Cl-biphenyl)]
Dose 150 ppm
  Rating: 0

## O=C1O/C(=C\c2ccc3ccccc3c2)C(O)=C1c1ccc(-c2ccccc2)cc1 [R=H; R1=4-biphenyl; R2=2-naphthyl]
Dose 150 ppm
  Rating: 0

## O=C1OC(=Cc2ccc(-c3ccccn3)s2)C(O)=C1c1ccc(OC(F)(F)F)cc1 (mixture of isomers)
Dose 100 ppm
  Rating: 9

## N#Cc1ccc(C=C2OC(=O)C(c3ccc(Cl)cc3)=C2O)cc1 (mixture of isomers) [R=H; R1=4-Cl—C6H4**; R2=4-CN—C6H4]
Dose 150 ppm
  Rating: 9

## CN(C)c1ccc(C=C2OC(=O)C(c3cc(Cl)cc(Cl)c3)=C2O)c2ccccc12
Dose 150 ppm
  Rating: 0

## COC1=C(c2ccccc2)C(=O)O/C1=C\c1cccc(C(F)(F)F)c1 [R=CH3; R1=C6H5; R2=3-CF3—C6H4]
Dose 150 ppm
  Rating: 0

## O=C1OC(=Cc2ccc(OC(F)(F)C(F)F)cc2)C(O)=C1c1ccc(OC(F)(F)F)cc1 (mixture of isomers)
Dose 100 ppm
  Rating: 9

## O=C1OC(=Cc2ccccc2OCc2ccccc2)C(O)=C1c1cc(Cl)cc(Cl)c1
Dose 150 ppm
  Rating: 0

## N#Cc1ccc(C2=C(O)C(=Cc3ccc(Cl)cc3)OC2=O)cc1 [R=H; R1=4-CN—C6H4**; R2=4-Cl—C6H4]
Dose 150 ppm
  Rating: 9

## COC1=C(c2ccc(OC)cc2)C(=O)O/C1=C\c1cccc(C(F)(F)F)c1 [R=CH3; R1=4-OCH3—C6H4; R2=3-CF3—C6H4]
Dose 150 ppm
  Rating: 0

## N#Cc1ccc(C=C2OC(=O)C(c3cccs3)=C2O)cc1 [R=H; R1=thiophen-2-yl; R2=4-CN—C6H4]
Dose 100 ppm
  Rating: 0

## CC(C)(C)c1ccc(-c2ccc(C3=C(O)/C(=C/c4ccc(-c5ccccc5)cc4)OC3=O)cc2)cc1
Dose 150 ppm
  Rating: 0

## O=C1O/C(=C\c2cc(C(F)(F)F)ccc2F)C(O)=C1c1cccc(-c2ccccc2)c1 [R=H; R1=3-biphenyl; R2=2-F-5-CF3—C6H3]
Dose 200 μM
  Rating: 9

Source: US7495027B2, “3-aryl-4-hydroxyfuranone compounds and the human and animal health use thereof” (Wyeth, priority 2003, dated 2009)
